Literature values as cited in patent publication US9174839B2, “Methods and compositions for wound healing” (IMBED BIOSCIENCES, INC., priority 2008, dated 2015).

Experiments:
[1] = incisional wounds
keratinocytes = conditions: in vitro monolayer cell cultures
fibroblasts = conditions: in vitro monolayer cell cultures
hepatocytes = conditions: in vitro
lymphocytes = conditions: in vitro

Row | Compound | fibroblastic proliferation [1] | production of collagen [1] | toxicity to keratinocytes (keratinocytes) | toxicity to fibroblasts (fibroblasts) | cytotoxic effects on hepatocytes (hepatocytes) | cytotoxic effects on lymphocytes (lymphocytes)
1 | CC1=C(/C=C/C(C)=C/C=C/C(C)=C/C(=O)O)C(C)(C)CCC1 [tretinoin] | increased | diminished |  |  |  | 
2 | silver ions |  |  | cytotoxic effects | cytotoxic effects | cytotoxic effects | cytotoxic effects
